ChEMBL document CHEMBL1201862, “PubChem BioAssay data set” (2004)
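All cell lines were grown in 96-well plates and treated with compound for 48 hours. GI50: concentration for 50% inhibition of growth.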 Active and inactive are the calls of the source. Cut-off read from the data, not from the text of the source: active = GI50 up to about 1.1 µM and inactive = higher.

Experiments:
Assay in all cases: inhibition of tumour cell growth, NCI panel, 48 h
MOLT-4 = tested on: MOLT-4
M14 = tested on: M14
SF-539 = tested on: SF-539
CAKI-1 = tested on: CAKI-1
OVCAR-8 = tested on: OVCAR-8
HOP-62 = tested on: HOP-62
SR = tested on: SR
SNB-75 = tested on: SNB-75
SK-MEL-28 = tested on: SK-MEL-28
Malme-3M = tested on: Malme-3M
MDA-MB-435 = tested on: MDA-MB-435
A549 = tested on: A549
DU-145 = tested on: DU-145
MDA-MB-231 = tested on: MDA-MB-231
EKVX = tested on: EKVX
ACHN = tested on: ACHN
Hs-578T = tested on: Hs-578T
IGROV-1 = tested on: IGROV-1
RXF 393 = tested on: RXF 393
SW-620 = tested on: SW-620

Compound	GI50 (MOLT-4)	GI50 (M14)	GI50 (SF-539)	GI50 (CAKI-1)	GI50 (OVCAR-8)	GI50 (HOP-62)	GI50 (SR)	GI50 (SNB-75)	GI50 (SK-MEL-28)	GI50 (Malme-3M)	GI50 (MDA-MB-435)	GI50 (A549)	GI50 (DU-145)	GI50 (MDA-MB-231)	GI50 (EKVX)	GI50 (ACHN)	GI50 (Hs-578T)	GI50 (IGROV-1)	GI50 (RXF 393)	GI50 (SW-620)
CN(C)CC1CCC/C(=C\c2ccc(Cl)c(Cl)c2)C1=O (stereo not drawn)	1.44 µM (inactive)	3.83 µM (inactive)	5.2 µM (inactive)	2.59 µM (inactive)	3.18 µM (inactive)	9.04 µM (inactive)	1.08 µM (active)	7.41 µM (inactive)	5.14 µM (inactive)	4.42 µM (inactive)	6.38 µM (inactive)	15.1 µM (inactive)	10.9 µM (inactive)	4.65 µM (inactive)	10.8 µM (inactive)	4.18 µM (inactive)	2.99 µM (inactive)	3.56 µM (inactive)	–	–
N=C(N)SC(c1ccccc1)c1ccccc1	15.7 µM (inactive)	11.4 µM (inactive)	20.8 µM (inactive)	13.5 µM (inactive)	15.3 µM (inactive)	19.6 µM (inactive)	24 µM (inactive)	–	4.84 µM (inactive)	18.6 µM (inactive)	12.6 µM (inactive)	25.2 µM (inactive)	12.2 µM (inactive)	15.2 µM (inactive)	15 µM (inactive)	14.9 µM (inactive)	27.1 µM (inactive)	18.5 µM (inactive)	6.52 µM (inactive)	16.8 µM (inactive)
CC(C)C1=CC23CCC4C(C)(C(=O)O)CCCC4(C)C2CC1C1C(=O)N(c2ccccc2N2C(=O)C4C5CC6C7(C)CCCC(C)(C(=O)O)C7CCC6(C=C5C(C)C)C4C2=O)C(=O)C13 (stereo not drawn)	2.85 µM (inactive)	5.24 µM (inactive)	3.1 µM (inactive)	–	4.52 µM (inactive)	4.67 µM (inactive)	3.89 µM (inactive)	–	7.89 µM (inactive)	13.1 µM (inactive)	3.63 µM (inactive)	14 µM (inactive)	9.4 µM (inactive)	11.6 µM (inactive)	3.64 µM (inactive)	10.2 µM (inactive)	9.55 µM (inactive)	–	11.3 µM (inactive)	12.6 µM (inactive)
O=C1/C(=C\c2cccc(Oc3ccccc3)c2)SC(c2ccccc2)N1c1ccccc1Cl (stereo not drawn)	34.8 µM (inactive)	30.8 µM (inactive)	19.1 µM (inactive)	34 µM (inactive)	21.9 µM (inactive)	28.8 µM (inactive)	19.3 µM (inactive)	–	41.2 µM (inactive)	33.6 µM (inactive)	23.3 µM (inactive)	37.5 µM (inactive)	32.9 µM (inactive)	30.3 µM (inactive)	28.8 µM (inactive)	39.6 µM (inactive)	16.5 µM (inactive)	–	20.8 µM (inactive)	33.3 µM (inactive)
O=C1c2cc(Cl)ccc2N=C(NCCCl)C2CSCN12 (stereo not drawn)	> 100 µM (inactive)	> 100 µM (inactive)	–	> 100 µM (inactive)	> 100 µM (inactive)	> 100 µM (inactive)	52.8 µM (inactive)	–	> 100 µM (inactive)	> 100 µM (inactive)	> 100 µM (inactive)	> 100 µM (inactive)	> 100 µM (inactive)	> 100 µM (inactive)	> 100 µM (inactive)	> 100 µM (inactive)	86.5 µM (inactive)	> 100 µM (inactive)	> 100 µM (inactive)	> 100 µM (inactive)
O=C(N/N=C/c1ccc(Br)cc1)N/N=C/c1ccc(Br)cc1	4.42 µM (inactive)	11.1 µM (inactive)	–	4.66 µM (inactive)	5.08 µM (inactive)	5.56 µM (inactive)	4.33 µM (inactive)	–	12 µM (inactive)	3.05 µM (inactive)	12.3 µM (inactive)	16 µM (inactive)	9.12 µM (inactive)	3.38 µM (inactive)	10.3 µM (inactive)	4.94 µM (inactive)	3.78 µM (inactive)	4.72 µM (inactive)	13.3 µM (inactive)	7.13 µM (inactive)
